Laboratory results as given in patent publication US6737383B1, “Herbicidal oxadiazolidines” (priority 1999, dated 2004).

Legend:
purple nutsedge = experiment: Test B pre/postemergence purple nutsedge; assay type: in vivo, Cyperus rotundus
Procedure, shortened: (§1)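 Response is a visual 0-to-10 score relative to untreated plants, where 0 means no effect and 10 means complete control, taken twelve to sixteen days after application. Treatments went onto soil at planting and onto foliage of 1- to 4-leaf plants, using a surfactant-containing non-phytotoxic solvent.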

crabgrass = experiment: Test B pre/postemergence crabgrass; assay type: in vivo, Digitaria sanguinalis
Procedure, shortened: as §1

sugar beet = experiment: Test B pre/postemergence sugar beet; assay type: in vivo, Beta vulgaris
Procedure, shortened: as §1

rape = experiment: Test B pre/postemergence rape; assay type: in vivo, Brassica napus
Procedure, shortened: as §1

soybean = experiment: Test B pre/postemergence soybean; assay type: in vivo, Glycine max
Procedure, shortened: as §1

blackgrass = experiment: Test B pre/postemergence blackgrass; assay type: in vivo, Alopecurus myosuroides
Procedure, shortened: as §1

wild oat = experiment: Test B pre/postemergence wild oat; assay type: in vivo, Avena fatua
Procedure, shortened: as §1

velvetleaf = experiment: Test B pre/postemergence velvetleaf; assay type: in vivo, Abutilon theophrasti
Procedure, shortened: as §1

pigweed = experiment: Test B pre/postemergence pigweed; assay type: in vivo, Amaranthus retroflexus
Procedure, shortened: as §1

wheat = experiment: Test B pre/postemergence wheat; assay type: in vivo, Triticum aestivum
Procedure, shortened: as §1

rice = experiment: Test B flood test rice; assay type: in vivo, Oryza sativa
Procedure, shortened: (§2)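 Flood test on plants grown to the 2-leaf stage; treated plants kept in greenhouse twelve to sixteen days, then visually rated against controls on a 0 (no effect) to 10 (complete control) scale.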

corn = experiment: Test B pre/postemergence corn; assay type: in vivo, Zea mays
Procedure, shortened: as §1

surinam grass = experiment: Test B pre/postemergence surinam grass; assay type: in vivo, Brachiaria decumbens
Procedure, shortened: as §1

bedstraw = experiment: Test B pre/postemergence bedstraw; assay type: in vivo, Galium aparine
Procedure, shortened: as §1

smallflower flatsedge = experiment: Test B flood test smallflower flatsedge; assay type: in vivo, Cyperus difformis
Procedure, shortened: as §2

duck salad = experiment: Test B flood test duck salad; assay type: in vivo, Heteranthera limosa
Procedure, shortened: as §2

[1] = Preemergence, Rate 31 g/ha, visual rating, scale 0 to 10 (0 no effect, 10 complete control)
[2] = Preemergence, Rate 62 g/ha, scale of 0 to 10 where 0 is no effect and 10 is complete control
[3] = Rate 16 g/ha, Postemergence, scale 0 to 10, 0 no effect, 10 complete control
[4] = Rate 16 g/ha, Preemergence, scale 0 to 10, 0 no effect, 10 complete control
[5] = Rate 31 g/ha, Postemergence, scale 0 to 10
[6] = Rate 62 g/ha, Postemergence, scale 0 to 10 (0 no effect, 10 complete control)
[7] = Rate 125 g/ha, Postemergence, scale of 0 to 10 where 0 is no effect and 10 is complete control
[8] = Rate 125 g/ha, Preemergence, scale of 0 to 10 where 0 is no effect and 10 is complete control
[9] = Rate 16 g/ha, head printed Pre-emergence (flood test species), scale 0 to 10, 0 no effect, 10 complete control
[10] = Rate 31 g/ha, Pre-emergence section (flood test species), scale 0 to 10
[11] = Rate 62 g/ha, headed Pre-emergence (flood test species), scale 0 to 10 (0 no effect, 10 complete control)
[12] = Rate 125 g/ha, Pre-emergence, flood test species, scale 0 to 10 where 0 is no effect and 10 is complete control

CC(C)N(C(=O)n1oc(=O)n(CCCF)c1=O)c1ccc(F)cc1 [Compound 287]
Nutsedge plant response rating (purple nutsedge; [1]): 0 | Nutsedge plant response rating (purple nutsedge; [2]): 0 | Nutsedge plant response rating (purple nutsedge; [3]): 0 | Nutsedge plant response rating (purple nutsedge; [4]): 0 | Nutsedge plant response rating (purple nutsedge; [5]): 5 | Nutsedge plant response rating (purple nutsedge; [6]): 6 | Nutsedge plant response rating (purple nutsedge; [7]): 6 | Nutsedge plant response rating (purple nutsedge; [8]): 6 | Crabgrass plant response rating (crabgrass; [1]): 2 | Crabgrass plant response rating (crabgrass; [2]): 8 | Crabgrass plant response rating (crabgrass; [3]): 0 | Crabgrass plant response rating (crabgrass; [4]): 0 | Crabgrass plant response rating (crabgrass; [5]): 2 | Crabgrass plant response rating (crabgrass; [6]): 2 | Crabgrass plant response rating (crabgrass; [7]): 5 | Crabgrass plant response rating (crabgrass; [8]): 9 | Sugarbeets plant response rating (sugar beet; [1]): 0 | Sugarbeets plant response rating (sugar beet; [2]): 3 | Sugarbeets plant response rating (sugar beet; [3]): 0 | Sugarbeets plant response rating (sugar beet; [4]): 0 | Sugarbeets plant response rating (sugar beet; [6]): 0 | Sugarbeets plant response rating (sugar beet; [7]): 0 | Sugarbeets plant response rating (sugar beet; [8]): 6 | Rape plant response rating (rape; [1]): 4 | Rape plant response rating (rape; [2]): 4 | Rape plant response rating (rape; [3]): 0 | Rape plant response rating (rape; [4]): 0 | Rape plant response rating (rape; [5]): 0 | Rape plant response rating (rape; [6]): 0 | Rape plant response rating (rape; [7]): 0 | Rape plant response rating (rape; [8]): 8 | Soybean plant response rating (soybean; [1]): 0 | Soybean plant response rating (soybean; [2]): 0 | Soybean plant response rating (soybean; [3]): 1 | Soybean plant response rating (soybean; [4]): 0 | Soybean plant response rating (soybean; [6]): 1 | Soybean plant response rating (soybean; [7]): 3 | Soybean plant response rating (soybean; [8]): 6 | Blackgrass plant response rating (blackgrass; [1]): 7 | Blackgrass plant response rating (blackgrass; [2]): 10 | Blackgrass plant response rating (blackgrass; [3]): 0 | Blackgrass plant response rating (blackgrass; [4]): 0 | Blackgrass plant response rating (blackgrass; [5]): 8 | Blackgrass plant response rating (blackgrass; [6]): 8 | Blackgrass plant response rating (blackgrass; [7]): 9 | Blackgrass plant response rating (blackgrass; [8]): 10 | Wild oats plant response rating (wild oat; [1]): 1 | Wild oats plant response rating (wild oat; [2]): 8 | Wild oats plant response rating (wild oat; [3]): 0 | Wild oats plant response rating (wild oat; [4]): 0 | Wild oats plant response rating (wild oat; [6]): 2 | Wild oats plant response rating (wild oat; [7]): 3 | Velvetleaf plant response rating (velvetleaf; [1]): 3 | Velvetleaf plant response rating (velvetleaf; [2]): 6 | Velvetleaf plant response rating (velvetleaf; [3]): 0 | Velvetleaf plant response rating (velvetleaf; [4]): 1 | Velvetleaf plant response rating (velvetleaf; [6]): 0 | Velvetleaf plant response rating (velvetleaf; [7]): 4 | Velvetleaf plant response rating (velvetleaf; [8]): 7 | Redroot pigweed plant response rating (pigweed; [1]): 4 | Redroot pigweed plant response rating (pigweed; [2]): 5 | Redroot pigweed plant response rating (pigweed; [3]): 0 | Redroot pigweed plant response rating (pigweed; [4]): 0 | Redroot pigweed plant response rating (pigweed; [5]): 0 | Redroot pigweed plant response rating (pigweed; [6]): 2 | Redroot pigweed plant response rating (pigweed; [7]): 6 | Redroot pigweed plant response rating (pigweed; [8]): 8 | Wheat plant response rating (wheat; [1]): 0 | Wheat plant response rating (wheat; [2]): 0 | Wheat plant response rating (wheat; [3]): 0 | Wheat plant response rating (wheat; [4]): 0 | Wheat plant response rating (wheat; [6]): 5 | Wheat plant response rating (wheat; [7]): 5 | Wheat plant response rating (wheat; [8]): 7 | Rice plant response rating (rice; [9]): 0 | Rice plant response rating (rice; [10]): 0 | Rice plant response rating (rice; [11]): 0 | Rice plant response rating (rice; [12]): 0 | Corn plant response rating (corn; [1]): 0 | Corn plant response rating (corn; [2]): 0 | Corn plant response rating (corn; [3]): 0 | Corn plant response rating (corn; [4]): 0 | Corn plant response rating (corn; [5]): 0 | Corn plant response rating (corn; [6]): 0 | Corn plant response rating (corn; [7]): 0 | Corn plant response rating (corn; [8]): 0 | B. signalgrass plant response rating (surinam grass; [1]): 3 | B. signalgrass plant response rating (surinam grass; [2]): 6 | B. signalgrass plant response rating (surinam grass; [3]): 0 | B. signalgrass plant response rating (surinam grass; [4]): 0 | B. signalgrass plant response rating (surinam grass; [5]): 0 | B. signalgrass plant response rating (surinam grass; [6]): 0 | B. signalgrass plant response rating (surinam grass; [7]): 2 | B. signalgrass plant response rating (surinam grass; [8]): 10 | Bedstraw plant response rating (bedstraw; [1]): 4 | Bedstraw plant response rating (bedstraw; [2]): 9 | Bedstraw plant response rating (bedstraw; [3]): 0 | Bedstraw plant response rating (bedstraw; [4]): 0 | Bedstraw plant response rating (bedstraw; [5]): 0 | Bedstraw plant response rating (bedstraw; [6]): 4 | Bedstraw plant response rating (bedstraw; [7]): 8 | Bedstraw plant response rating (bedstraw; [8]): 10 | S. Flatsedge plant response rating (smallflower flatsedge; [9]): 0 | S. Flatsedge plant response rating (smallflower flatsedge; [10]): 0 | S. Flatsedge plant response rating (smallflower flatsedge; [11]): 0 | S. Flatsedge plant response rating (smallflower flatsedge; [12]): 0 | Ducksalad plant response rating (duck salad; [9]): 0 | Ducksalad plant response rating (duck salad; [10]): 0 | Ducksalad plant response rating (duck salad; [11]): 0 | Ducksalad plant response rating (duck salad; [12]): 0
